This is an account of results in publication PMC12573178, “Substrate-Guided Development of HDAC11-Selective Inhibitors Featuring α‑Amino Amide Zinc-Binding Groups” (ACS Omega, 2025).

The target of one experiment is T1, SIRT2 (Homo sapiens, UniProt Q8IXJ6).
T1 sequence (Q8IXJ6 1-389): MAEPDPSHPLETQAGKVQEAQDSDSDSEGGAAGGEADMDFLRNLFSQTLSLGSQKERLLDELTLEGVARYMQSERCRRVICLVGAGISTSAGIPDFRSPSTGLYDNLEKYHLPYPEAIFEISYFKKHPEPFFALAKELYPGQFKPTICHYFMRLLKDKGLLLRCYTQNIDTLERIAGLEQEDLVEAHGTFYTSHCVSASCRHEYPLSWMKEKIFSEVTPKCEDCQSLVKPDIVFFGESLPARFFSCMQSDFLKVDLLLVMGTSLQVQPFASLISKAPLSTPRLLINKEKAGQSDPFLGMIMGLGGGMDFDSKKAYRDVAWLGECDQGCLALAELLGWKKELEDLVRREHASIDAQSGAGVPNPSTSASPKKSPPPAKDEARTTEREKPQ
Kind of experiment: SIRT2 inhibition assays (continuous / discontinuous demyristoylation). The class given is biochemical. The method, then:
Inhibition of the enzymatic activity of HDACs was performed continuously for HDAC8, HDAC11, and SIRT2 and discontinuously for SIRT2, 3, and 6 using adequate substrates as described previously. , Experimental details are given in the Supporting Information.
A. HDAC and SIRT deacylase activity assays
Continuous in vitro HDAC inhibition assays
The inhibitors were tested using 384-well plates (GreinerONe). After 5 min of incubation of the inhibitors together with the respective enzymes (HDAC8 = 2 nM, HDAC11 = 20 nM, SIRT2 = 1 nM), the reactions were always started by the addition of substrate for the Zn2+-dependent HDAC and by the addition of NAD+ for SIRT2. […]
The fluorescence increase was followed for 1 h with two reads per min using a PerkinElmer Envision 2104 multilabel plate reader. […] The measured values were normalized accordingly. […] The data were fitted using the GraphPad Prism8 software and kinetic values calculated through non-linear regression analysis. […]
Reactions were stopped after 20 min by adding a constant volume of reaction mixture to stop solution (5 % acetonitrile (ACN) (v/v) and 1 % trifluoroacetic acid (TFA) (v/v) in dd. H 2O). The samples were analysed using HPLC-UV/VIS at λ Abs = 220 nm, λ Ex = 320 nm und λ Em = 420 nm. […]
100 nM, SIRT3: 200 nM, SIRT6: 500 nM). […] The samples were analysed using HPLC-UV/VIS at λ Abs = 360 nm. […]

A further experiment concerns HEK293 cells. Kind of experiment: Metabolic labeling with Alk-14, CuAAC with Cy3-azide, in-gel fluorescence (global fatty-acylation level). The class given is cell-based. Particulars: Alk-14 25 μM, 31 20 μM, 24 h.

Consider `CCCCCCCCCCCCSC[C@@H](N)C(=O)NCCCC[C@@H]1NC(=O)[C@H](CCC(N)=O)NC1=O` [Compound 31], for which, on SIRT2, the IC50 is over 20 µM. On SIRT2 (50 μM 31), testing at 50 µM gave an inhibition of 41.5%. In addition, the “In-gel fluorescence signal (protein fatty acylation)” value in the experiment on HEK293 cells is recorded as “moderately increased the fluorescence signal”.

What is called IC50 is the concentration that gives 50% inhibition. The low end stands for greater potency, the high end for weaker potency. Usually inhibition stands for the change of the read-out against control, counted positive when it falls. Low values mean a response near the control, high ones a response far below the control.
